Measured values: ChEMBL document CHEMBL1201862, “PubChem BioAssay data set” (2004)
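Five compound concentrations were applied to cells in 96-well plates for 48 hours; endpoints were derived by simple linear interpolation of the resulting dose-response curve. GI50 marks 50% less growth.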 The source made the active and inactive calls. Cut-off read from the data, not from the text of the source: active = GI50 up to about 1.1 µM and inactive = higher.

Columns and labels:
Experiment in all cases: NCI anticancer screen, dose series, 48 h
COLO 205 = test system: COLO 205
HCC 2998 = test system: HCC 2998
OVCAR-8 = test system: OVCAR-8
SK-OV-3 = test system: SK-OV-3
SF-295 = test system: SF-295
K562 = test system: K562
NCI-H226 = test system: NCI-H226
Malme-3M = test system: Malme-3M
SW-620 = test system: SW-620
MOLT-4 = test system: MOLT-4
M14 = test system: M14
UACC-62 = test system: UACC-62
CCRF-CEM = test system: CCRF-CEM
NCI-H460 = test system: NCI-H460
SN12C = test system: SN12C
HT-29 = test system: HT-29
SK-MEL-2 = test system: SK-MEL-2
A498 = test system: A498

Measured: GI50

Cc1ccc(S(=O)(=O)c2c(N)c3nc4ccccc4n3c3nc4ccccc4nc23)cc1
inactive: COLO 205 > 100 µM | HCC 2998 > 100 µM | OVCAR-8 > 100 µM | SK-OV-3 > 100 µM | SF-295 > 100 µM | K562 > 100 µM | NCI-H226 > 100 µM | Malme-3M > 100 µM | SW-620 > 100 µM | MOLT-4 > 100 µM | M14 > 100 µM | UACC-62 > 100 µM | CCRF-CEM > 100 µM | NCI-H460 > 100 µM | SN12C > 100 µM | HT-29 > 100 µM | SK-MEL-2 > 100 µM

O=C(O)c1ccc([C@@H]2C(=O)N(O)[C@@H]3C=CC[C@@H]32)cc1
inactive: COLO 205 > 100 µM | HCC 2998 > 100 µM | OVCAR-8 > 100 µM | SK-OV-3 > 100 µM | SF-295 > 100 µM | K562 > 100 µM | NCI-H226 > 100 µM | Malme-3M > 100 µM | SW-620 > 100 µM | MOLT-4 > 100 µM | M14 > 100 µM | UACC-62 > 100 µM | CCRF-CEM > 100 µM | SN12C > 100 µM | HT-29 > 100 µM | SK-MEL-2 > 100 µM

COc1cc2c(cc1OC)C(C#N)N(C(=O)c1ccccc1)C=C2OC(=O)c1ccccc1 (stereo not drawn)
inactive: COLO 205 46.6 µM | HCC 2998 45.1 µM | OVCAR-8 27.9 µM | SK-OV-3 65.8 µM | SF-295 22.5 µM | K562 32.7 µM | NCI-H226 23.2 µM | Malme-3M 25.3 µM | SW-620 33 µM | MOLT-4 77.8 µM | M14 37.8 µM | UACC-62 20.5 µM | CCRF-CEM 36.6 µM | NCI-H460 36.4 µM | SN12C 38.5 µM | HT-29 48.5 µM | SK-MEL-2 22.6 µM

Cn1cc(NC(=O)c2cc(NC(=O)Nc3cc(C(=O)Nc4cc(C(=O)NCCC(=N)N)n(C)c4)n(C)c3)cn2C)cc1C(=O)NCCC(=N)N
inactive: COLO 205 33 µM | HCC 2998 48.1 µM | OVCAR-8 22.8 µM | SK-OV-3 > 100 µM | SF-295 33.9 µM | K562 51.8 µM | A498 25.1 µM | Malme-3M 24.9 µM | SW-620 > 100 µM | MOLT-4 > 100 µM | M14 20.4 µM | UACC-62 16.9 µM | CCRF-CEM 22 µM | NCI-H460 17.3 µM | SN12C 86.7 µM | HT-29 > 100 µM

CN1c2ccccc2N(C(=O)c2ccccc2)C(CC(=O)O)c2cccn21 (stereo not drawn)
inactive: COLO 205 > 100 µM | HCC 2998 > 100 µM | OVCAR-8 > 100 µM | SK-OV-3 > 100 µM | SF-295 > 100 µM | K562 > 100 µM | A498 > 100 µM | Malme-3M > 100 µM | SW-620 > 100 µM | MOLT-4 > 100 µM | M14 > 100 µM | UACC-62 55.3 µM | CCRF-CEM > 100 µM | NCI-H460 > 100 µM | SN12C > 100 µM | HT-29 > 100 µM | SK-MEL-2 > 100 µM

COC(=O)/C(C#N)=C1\NN=NN1c1ccc(OC)cc1
inactive: COLO 205 > 100 µM | HCC 2998 > 100 µM | OVCAR-8 > 100 µM | SK-OV-3 > 100 µM | SF-295 > 100 µM | K562 > 100 µM | A498 > 100 µM | NCI-H226 > 100 µM | Malme-3M > 100 µM | SW-620 > 100 µM | MOLT-4 > 100 µM | M14 > 100 µM | UACC-62 > 100 µM | CCRF-CEM > 100 µM | NCI-H460 > 100 µM | SN12C > 100 µM | HT-29 > 100 µM

CC(=O)O[C@]12CCC[C@H]1C1(O)C(O)CCC[C@H]12 (stereo partly drawn)
inactive: COLO 205 > 100 µM | OVCAR-8 > 100 µM | SK-OV-3 > 100 µM | SF-295 > 100 µM | K562 > 100 µM | NCI-H226 > 100 µM | Malme-3M > 100 µM | SW-620 > 100 µM | MOLT-4 > 100 µM | M14 > 100 µM | UACC-62 > 100 µM | CCRF-CEM > 100 µM | NCI-H460 > 100 µM | SN12C > 100 µM | HT-29 > 100 µM | SK-MEL-2 > 100 µM

CCc1cccc(C(C)C)c1NC(=O)C(=O)C1C(=O)NC(=O)NC1=O
inactive: COLO 205 > 100 µM | HCC 2998 > 100 µM | OVCAR-8 > 100 µM | SK-OV-3 > 100 µM | SF-295 > 100 µM | K562 > 100 µM | A498 > 100 µM | NCI-H226 > 100 µM | Malme-3M > 100 µM | SW-620 > 100 µM | M14 > 100 µM | UACC-62 > 100 µM | CCRF-CEM > 100 µM | NCI-H460 > 100 µM | SN12C > 100 µM | HT-29 > 100 µM

CC1CC(=O)C(C(O)CC2CC(=O)N(c3ccccc3)C(=O)C2)C(C)C1 (stereo not drawn)
inactive: COLO 205 > 100 µM | HCC 2998 > 100 µM | OVCAR-8 > 100 µM | SK-OV-3 > 100 µM | SF-295 > 100 µM | K562 > 100 µM | A498 > 100 µM | NCI-H226 > 100 µM | Malme-3M > 100 µM | SW-620 > 100 µM | MOLT-4 > 100 µM | M14 > 100 µM | UACC-62 > 100 µM | CCRF-CEM > 100 µM | NCI-H460 > 100 µM | SN12C > 100 µM | HT-29 > 100 µM

c1ccc2c(c1)CCC/C2=N\OCC1CO1 (stereo not drawn)
inactive: COLO 205 > 100 µM | HCC 2998 > 100 µM | OVCAR-8 81.7 µM | SK-OV-3 > 100 µM | SF-295 70.1 µM | K562 43.8 µM | A498 82 µM | Malme-3M > 100 µM | SW-620 92.9 µM | MOLT-4 49.3 µM | M14 80.9 µM | UACC-62 58.6 µM | CCRF-CEM 23.2 µM | NCI-H460 > 100 µM | SN12C > 100 µM | HT-29 98.4 µM | SK-MEL-2 61.2 µM

CCCCCCCCOCC(CO)OCCCCCCCC (stereo not drawn)
inactive: COLO 205 20.6 µM | HCC 2998 18.9 µM | OVCAR-8 19.3 µM | SK-OV-3 > 100 µM | SF-295 16.3 µM | K562 18.4 µM | A498 18.8 µM | NCI-H226 24.4 µM | Malme-3M 19.6 µM | SW-620 19.8 µM | MOLT-4 19.2 µM | M14 26.1 µM | UACC-62 20.1 µM | CCRF-CEM 22.5 µM | NCI-H460 15.8 µM | SN12C 17.4 µM | HT-29 20.6 µM

COC(=O)C(Cc1cc(OC)c(OC)c(OC)c1)c1ccc(OC)cc1 (stereo not drawn)
inactive: COLO 205 > 100 µM | OVCAR-8 > 100 µM | SF-295 > 100 µM | K562 88.9 µM | A498 > 100 µM | NCI-H226 > 100 µM | Malme-3M > 100 µM | SW-620 > 100 µM | MOLT-4 62.7 µM | M14 > 100 µM | UACC-62 > 100 µM | CCRF-CEM 88.5 µM | NCI-H460 > 100 µM | SN12C > 100 µM | HT-29 > 100 µM
